Measured values: patent US6737383B1, “Herbicidal oxadiazolidines” (priority 1999, dated 2004)

Columns and labels:
eastern black nightshade = experiment: Test C postemergence eastern black nightshade; type: in vivo, Solanum ptycanthum; details: 0 to 100 scale, 0 no effect, 100 complete control
Method in brief: (§1)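 Activity is expressed as percent-style visual control, 0 (no effect) to 100 (complete control), assessed approximately 14 to 21 days after application, relative to untreated plants. Application was postemergence, using a non-phytotoxic solvent formulation with surfactant.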

hairy beggarticks = experiment: Test C postemergence hairy beggarticks; type: in vivo, Bidens pilosa; details: 0 to 100 scale, 0 no effect, 100 complete control
Method in brief: as §1

lambsquarters [1] = experiment: Test C postemergence lambsquarters; type: in vivo, Chenopodium album; details: 0 to 100 scale, 0 no effect, 100 complete control
Method in brief: as §1

redroot pigweed [2] = experiment: Test C postemergence redroot pigweed; type: in vivo, Amaranthus retroflexus; details: 0 to 100 scale, 0 no effect, 100 complete control
Method in brief: as §1

jointed goatgrass [3] = experiment: Test E jointed goatgrass; type: in vivo, Aegilops cylindrica; details: Postemergence
Method in brief: (§2)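 Compound formulated with surfactant in a non-phytotoxic solvent (postemergence: young 1- to 4-leaf plants); held in greenhouse approx. 21–28 days; visual assessment against untreated plants.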

lambsquarters [4] = experiment: Test E lambsquarters; type: in vivo, Chenopodium album; details: Postemergence
Method in brief: as §2

rape = experiment: Test E rape; type: in vivo, Brassica napus; details: Postemergence
Method in brief: as §2

ivyleaf speedwell = experiment: Test E postemergence ivyleaf speedwell; type: in vivo, Veronica hederaefolia
Method in brief: as §2

wild oat = experiment: Test E wild oat; type: in vivo, Avena fatua; details: Postemergence
Method in brief: as §2

Green foxtail = experiment: Test D green foxtail; type: in vivo
Method in brief: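 Greenhouse pots, seeds in sandy loam; compounds formulated in non-phytotoxic solvent with surfactant; preemergence treatments went on the soil surface within one day of planting. Injury rated visually 14 to 21 days after application on a 0 (none) to 100 (complete control) scale.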

galium = experiment: Test E galium; type: in vivo, Galium aparine; details: Preemergence
jointed goatgrass [5] = experiment: Test E jointed goatgrass; type: in vivo, Aegilops cylindrica; details: Preemergence
kochia = experiment: Test E kochia; type: in vivo, Kochia scoparia; details: Preemergence
redroot pigweed [6] = experiment: Test E redroot pigweed; type: in vivo, Amaranthus retroflexus; details: Preemergence
wild buckwheat = experiment: Test E wild buckwheat; type: in vivo, Polygonum convolvulus; details: Preemergence
[7] = Rate 250 g/ha, 0 to 100 scale (0 no effect, 100 complete control)
[8] = Rate 64 g/ha, Preemergence; 0 to 100 scale, 0 no injury, 100 complete control
[9] = Rate 125 g/ha, Preemergence; 0 to 100 scale, 0 no injury, 100 complete control
[10] = Rate 62 g/ha, 0 to 100 scale, 0 no effect, 100 complete control
[11] = Rate 125 g/ha, 0 to 100 scale (0 no effect, 100 complete control)

**Q.** What does the source list for `CCn1c(=O)on(C(=O)N(c2ccc(F)cc2)C(C)C)c1=O` [Compound 107]?
**A.** Plant response rating E. blacknightsh (eastern black nightshade; Rate 140 g/ha): 50; Plant response rating E. blacknightsh (eastern black nightshade; Rate 280 g/ha): 50; Plant response rating E. blacknightsh (eastern black nightshade; Rate 560 g/ha): 70; Plant response rating E. blacknightsh (eastern black nightshade; Rate 1120 g/ha): 95; Plant response rating H. beggarticks (hairy beggarticks; Rate 140 g/ha): 5; Plant response rating H. beggarticks (hairy beggarticks; Rate 280 g/ha): 60; Plant response rating H. beggarticks (hairy beggarticks; Rate 560 g/ha): 70; Plant response rating H. beggarticks (hairy beggarticks; Rate 1120 g/ha): 95; Plant response rating, Lambsquarters (lambsquarters [1]; Rate 140 g/ha): 0; Plant response rating, Lambsquarters (lambsquarters [1]; Rate 280 g/ha): 0; Plant response rating, Lambsquarters (lambsquarters [1]; Rate 560 g/ha): 40; Plant response rating, Lambsquarters (lambsquarters [1]; Rate 1120 g/ha): 40; Plant response rating, Redroot pigweed (redroot pigweed [2]; Rate 280 g/ha): 75; Plant response rating, Redroot pigweed (redroot pigweed [2]; Rate 560 g/ha): 80; Plant response rating, Redroot pigweed (redroot pigweed [2]; Rate 1120 g/ha): 80; Plant response rating, Jointed goatgra (jointed goatgrass [3]; Rate 62 g/ha, 0 to 100 scale): 0; Plant response rating, Jointed goatgra (jointed goatgrass [3]; Rate 125 g/ha, 0 to 100 scale): 10; Plant response rating, Jointed goatgra (jointed goatgrass [3]; [7]): 10; Plant response rating, Lambsquarters (lambsquarters [4]; Rate 62 g/ha, 0 to 100 scale): 15; Plant response rating, Lambsquarters (lambsquarters [4]; Rate 125 g/ha, 0 to 100 scale): 15; Plant response rating, Lambsquarters (lambsquarters [4]; [7]): 5; Plant response rating, Rape (rape; Rate 62 g/ha, 0 to 100 scale): 20; Plant response rating, Rape (rape; Rate 125 g/ha, 0 to 100 scale): 30; Plant response rating, Rape (rape; [7]): 50; Plant response rating, Veronica hedera (ivyleaf speedwell; Rate 62 g/ha, 0 to 100 scale): 10; Plant response rating, Veronica hedera (ivyleaf speedwell; Rate 125 g/ha, 0 to 100 scale): 0; Plant response rating, Veronica hedera (ivyleaf speedwell; [7]): 10; Plant response rating, Wild oat (wild oat; Rate 62 g/ha, 0 to 100 scale): 5; Plant response rating, Wild oat (wild oat; Rate 125 g/ha, 0 to 100 scale): 5; Plant response rating, Wild oat (wild oat; [7]): 0; Plant response rating, Green foxtail (Green foxtail; Preemergence; Rate 16 g/ha; 0 to 100 scale, 0 no injury, 100 complete control): 100; Plant response rating, Green foxtail (Green foxtail; Preemergence; Rate 32 g/ha; 0 to 100 scale, 0 no injury, 100 complete control): 100; Plant response rating, Green foxtail (Green foxtail; Rate 16 g/ha; Preemergence; 0 to 100 scale, 0 no injury, 100 complete control): 100; Plant response rating, Green foxtail (Green foxtail; Rate 32 g/ha; Preemergence; 0 to 100 scale, 0 no injury, 100 complete control): 100; Green foxtail plant response rating (Green foxtail; [8]): 100; Plant response rating, Green foxtail (Green foxtail; [8]): 100; Green foxtail plant response rating (Green foxtail; [9]): 100; Plant response rating, Green foxtail (Green foxtail; [9]): 100; Plant response rating, Green foxtail (Green foxtail; Rate 250 g/ha; Preemergence; 0 to 100 scale): 100; Plant response rating, Green foxtail (Green foxtail; Rate 500 g/ha, Preemergence; 0 to 100 scale): 100; Plant response rating, Galium (galium; [10]): 50; Plant response rating, Galium (galium; [11]): 70; Plant response rating, Galium (galium; Rate 250 g/ha, 0 to 100 scale): 100; Plant response rating, Jointed goatgra (jointed goatgrass [5]; [10]): 40; Plant response rating, Jointed goatgra (jointed goatgrass [5]; [11]): 50; Plant response rating, Jointed goatgra (jointed goatgrass [5]; Rate 250 g/ha, 0 to 100 scale): 50; Plant response rating, Kochia (kochia; [10]): 50; Plant response rating, Kochia (kochia; [11]): 60; Plant response rating, Kochia (kochia; Rate 250 g/ha, 0 to 100 scale): 80; Plant response rating, Redroot pigweed (redroot pigweed [6]; [10]): 100; Plant response rating, Redroot pigweed (redroot pigweed [6]; [11]): 100; Plant response rating, Redroot pigweed (redroot pigweed [6]; Rate 250 g/ha, 0 to 100 scale): 100; Plant response rating, Wild buckwheat (wild buckwheat; [10]): 60; Plant response rating, Wild buckwheat (wild buckwheat; [11]): 90; Plant response rating, Wild buckwheat (wild buckwheat; Rate 250 g/ha, 0 to 100 scale): 95
